Test results from patent US8697081B2, “Method of modulating neovascularization” (The Regents of the University of Michigan, priority 2008, dated 2014).

Columns and labels:
Type in all cases: cell-based
[1] = test system: Human umbilical vein endothelial cells; test: VEGF/HGF-triggered vasculogenesis in 3-D fibrin gel, or growth in 2-D culture; details: 3-D culture, VEGF/HGF-stimulated, blebbistatin or nocodazole
Text: (§1) At sites of tissue damage, inflammation or neoplasia, fibrinogen is converted into a 3-D meshwork of fibrin fibrils that serve as a structural support for endothelial cells undergoing neovascularization (Chun et al. 2006. Cell, 125: 577-591; Hiraoka et al. 1998. Cell, 95: 365-377; Schafer and Werner. 2008. Nat. Rev. Mol. Cell Biol., 9: 628-638; Zhou et al. 2008. Genes Dev., 22: 1231-1243). This process can be recapitulated in vitro by embedding serum-supplemented human endothelial cells within a 3-D fibrin gel in the presence of the pro-angiogenic factors, VEGF and HGF. Human umbilical vein endothelial cells were isolated from umbilical cords by perfusion of the umbilical vein with type 3 collagenase (Worthington, Lakewood, N.J.) and cultured in Medium-199 (Invitrogen, Carlsbad, Calif.) with 20% human serum and 50 μg/ml endothelial cell growth supplement (ECGS; BD Biosciences, Franklin Lakes, N.J.). For 3-D culture, endothelial cells were suspended in a solution of thrombin and aprotinin (Sigma, St. Louis, Mo.) and mixed 1:1 with a solution of 6 mg/ml fibrinogen (Calbiochem, Gibbstown, N.J.). Vasculogenesis was triggered by treatment with 100 ng/ml VEGF, 50 ng/ml HGF (Genentech, San Francisco, Calif.). Fibronectin fibrillogenesis was tracked in 3-D by co-culture with human fibronectin (Sigma) labeled with Alexa-594 (Invitrogen).
In the presence of VEGF and HGF, endothelial cells i) underwent marked changes in cell morphology from spherical to elongated, ii) mobilized proteinases which degrade the surrounding fibrin, iii) assembled a pericellular meshwork of fibronectin fibrils, and iv) initiated proliferative and tubulogenic responses that result in the formation of an anastomosing network of neovessels over a 6 day culture period (Hiraoka, supra; Saunders et al., 2006. J Cell Biol. 175: 179-191; Zhou et al., 2008. Proc. Natl. Acad. Sci. USA, 97: 4052-4057). […] Cell, 125: 757-767; Saunders et al., supra; Tomasini-Johansson et al., 2001. J. Biol. Chem., 276: 23430-23439; Zhou et al, supra). Endothelial cells cultured atop—rather than embedded within—fibrin gels (herein referred to as 2-D culture) display distinct growth requirements from those observed in 3-D culture.
Taken together, cytoskeletal reorganization and contractile tension may serve as the biomechanical effectors that transmit structural and mechanical cues from the pericellular ECM to the nuclear envelope. VEGF/HGF-stimulated endothelial cells were treated with either (a) blebbistatin to inhibit myosin ATPase function, or (b) nocodazole to prevent microtubule assembly under 3-D culture conditions (Salpingidou et al., 2007. J. Cell Biol., 178: 897-904; Zhou et al., supra).

[2] = test system: Human umbilical vein endothelial cells; test: Cytoskeletal organization (F-actin, β-tubulin, vimentin) and isometric tension/contractile force; details: 3-D culture, VEGF/HGF-stimulated, blebbistatin or nocodazole
[3] = test system: Human umbilical vein endothelial cells; test: Chromatin organization (GFP-H2B, H3K9me3) and histone H3/H4 acetylation; details: 3-D culture, VEGF/HGF-stimulated, blebbistatin or nocodazole
Text: as §1
Yet, multi-lobed nuclei and anomalous nuclear pore complex distributions can be observed in laminopathies, a pleiotropic series of genetic disorders wherein mutations in lamin or emerin impact chromatin organization, histone modifications, and transcriptional activity (Csoka et al., 2004. Aging Cell, 3: 235-243; Dechat et al., 2008. Genes Dev, 22: 832-853; Dillon, 2008. Dev Cell, 15: 182-186; Malhas et al., 2007. J. Cell Biol., 176: 593-603; Mendjan et al., 2006. Mol. Cell, 21: 811-823; Shumaker et al., 2006. Proc. Natl. Acad. Sci. USA, 103: 8703-8708; Tang et al., 2008. J. Cell Sci., 121: 1014-1024). To determine whether VEGF/HGF-dependent changes in nuclear shape similarly affect chromatin structure/function, chromatin packaging was tracked at the single-endothelial cell level by monitoring GFP-tagged histone H2B or pericentromeric constitutive heterochromatin localization. […] heterochromatin localization was visualized by immunostaining for trimethylated lysine 9 of histone H3 (H3K9me3) (Shumaker, supra; Tang, supra).
Histone acetylation can be regulated by chromatin positioning within the nucleus (Finlan et al., 2008. PLoS Genet, 4: e1000039; Somech et al., 2005. J. Cell Sci., 118: 4017-4025). Thus, the acetylation status of histones H3 and H4 was assessed as functional markers of changes in chromatin organization. […]

[4] = test system: Human umbilical vein endothelial cells; test: Nuclear architecture (GFP-lamin A, emerin) and nuclear pore complex (NUP153) distribution; details: 3-D culture, VEGF/HGF-stimulated, blebbistatin or nocodazole
Text: as §1
As the 3-D-specific requirements for MT-MMPs and fibronectin matrix assembly correlate with changes in endothelial cell morphology, efforts were initiated to identify mechanistic routes whereby cell shape changes impact cell function. In particular, the impact of ECM remodeling on nuclear architecture was investigated. Nuclear architecture was tracked by either transfecting cells with a GFP-tagged form of the nuclear matrix filament, lamin A, or by immunostaining for the integral nuclear membrane protein, emerin (Dahl et al., 2008. Circ. Res., 102: 1307-1318; Glynn and Glover, 2005. Hum. Mol. Genet., 14: 2959-2969; Starr, 2009. J. Cell Sci., 122: 577-586; Stewart et al., 2007. Science, 318: 1408-1412). Under 2-D conditions, endothelial cell nuclei assumed an ellipsoid shape when cultured atop fibrin gels in the absence or presence of VEGF/HGF. In marked contrast, under 3-D conditions, endothelial cells cultured within fibrin gels in the absence of VEGF/HGF unexpectedly display a distorted morphology with multiple lamin A matrix and emerin infoldings and surface irregularities. Upon addition of VEGF/HGF, however, the nuclei of fibrin-embedded endothelial cells undergo a dramatic, and 3-D-specific, remodeling to assume a more classic, ovoid morphology. Three-dimensional reconstructions of DAPI-stained nuclei confirm that nuclear architecture transitions between multi-lobed and smooth elliptical shapes in the absence or presence, respectively, of VEGF/HGF.
Nuclear matrix architecture controls the distribution of the nuclear pore complexes that regulate the trafficking of protein and RNA across the nuclear envelope (Goldman et al., 2004. Proc. Natl. Acad. Sci. USA, 101: 8963-8968; Hawryluk-Gara et al., 2005. Mol. Biol. Cell, 16: 2382-2394; Liu et al., 2007. J. Cell. Biol., 178: 785-798). As such, the localization of nuclear pores was assessed in intact cells by monitoring the localization of the component protein, NUP153. In 3-D culture, unstimulated endothelial cells accumulate NUP153-containing pore complexes at nuclear membrane invaginations. In contrast, the nuclei of VEGF/HGF-stimulated endothelial cells display a uniform distribution of pore complexes in nuclear membranes.
To determine the roles of MMP-dependent proteolysis and fibronectin matrix assembly in mediating nuclear shape and nuclear pore complex changes, fibrin-embedded endothelial cells were stimulated with VEGF/HGF in the presence of FUD or GM6001. […]

human endothelial cells [5] = test: F-actin cytoskeletal organization, activated β1 integrin and vinculin distribution (phalloidin, confocal); details: 3-D fibrin gel, 2 days, FUD or Del29 peptide
Method: To further study the effects of Fn matrix inhibition, additional cytological processes associated with angiogenesis were examined. Endothelial cells were cultured within 3-D or 2-D fibrin gels in the presence of the FUD or Del 29 peptides for 2 days. F-actin cytoskeletal organization was monitored following staining with Alexa 488-conjugated phalloidin. Cells also were stained with an antibody against activated β1 integrin or transfected with a GFP-tagged vinculin expression vector (pRK-vinculin-EGFP) to study distribution. Following counterstaining with Alexa 594-labeled phalloidin, fluorescence was monitored by confocal laser microscopy.
In the absence of Fn fibrillogenesis, an impaired ability of embedded endothelial cells to generate myosin-dependent forces and increase cytoplasmic stiffness was predicted to affect both Fn unfolding, as well as the ability of the cells to properly register the mechanical properties of the surrounding substratum (Wu et al. 1995. Cell, 83(5): 715-724; Zhong et al. 1998. J. Cell Biol., 141(2): 539-551; Baneyx et al. 2002. Proc. Natl. Acad. Sci. USA, 99(8): 5139-5143; Discher et al. 2005. Science, 310(5751): 1139-1143; Engler, supra; and Yoneda, supra). As such, the rheologic and functional characteristics of endothelial cells were assessed in the presence of the specific myosin ATPase inhibitor, blebbistatin. […]

human endothelial cells [6] = test: Fn matrix assembly by endothelial cells in 3-D fibrin gel, confocal laser microscopy; details: growth factor cocktail, FUD or Del29 250 nM, L8 or 9D2 100 μg/ml, 70 kDa Fn fragment 75 μg/ml
Method: Endothelial cells were isolated from human umbilical cord veins by collagenase digestion and cultured in Medium 199 (Gibco) containing 20% human serum, 50 μg/ml endothelial cell growth supplement (BD Biosciences), 100 U/ml penicillin, and 100 μg/ml streptomycin (Hiraoka et al. 1998. Cell, 95(3): 365-377). For 2-D/3-D culture, endothelial cell monolayers (no later than third passage) were suspended by mild trypsinization and dispersed within or plated atop fibrin (3 mg/ml) or collagen (2.2 mg/ml) gels (prepared as described in Hiraoka, supra, and Hotary et al. 2003. Cell, 114(1): 33-45), and stimulated with a cocktail of growth factors including 100 ng/ml human vascular endothelial growth factor (Genentech), 50 ng/ml human hepatocyte growth factor (Genentech), 10 ng/ml human TGFα (Biosource), 0.5 ng/ml TGFβ1 (R and D Systems), and 100 μg/ml heparin (Sigma). In selected experiments, endothelial cell spheroids were prepared and suspended in 3-D fibrin gels.
The effect of Fn matrix assembly, or lack thereof, on endothelial cell function during neovascularization was assessed. Human serum was depleted of Fn by gelatin-sepharose affinity chromatography (Amersham) and supplemented with either 20 μg/ml of human plasma Fn (Sigma) or FITC-labeled Fn. […]
(Chernousov et al. 1991. J. Biol. Chem., 266(17): 10851-10858; Tomasini-Johansson et al. 2001. J. Biol. Chem., 276(26): 23430-23439; Mao and Schwarzbauer. 2005. Matrix Biol., 24(6): 389-399; and Tomasini-Johansson et al. 2006. Matrix Biol., 25(5): 282-293). […] Cell number in 3-D cultures was determined by hemacytometry after dissolving gels with 2 mg/ml bacterial collagenase (Worthington) while the number of patent tubules was determined in randomly selected cross-sections. Fn matrix assembly and cell morphology were monitored by confocal laser microscopy. To examine cell migration, endothelial cells were embedded in a 100 μl fibrin gel for 2 hours, then placed within a 500 μl gel for 8 days in the presence of Del29, FUD, control IgG, or L8, after which migration from the inner gel was assessed. […]

Compound	endothelial cell 3-D tubulogenesis [1]	contractile force exerted on the 3-D ECM [2]	chromatin distribution [3]	levels of acetylated histones H3 and H4 [3]	nuclear shape and nuclear pore distribution [4]	stress fiber formation (F-actin phalloidin staining) (human endothelial cells [5])	Fn matrix assembly (Fn polymerization) (human endothelial cells [6])
COC(=O)Nc1nc2ccc(C(=O)c3cccs3)cc2[nH]1 [nocodazole]	completely inhibit	impairing	chromatin condensations at the nuclear periphery with increased interchromatin space	decreased levels	multi-lobed nuclei with perturbations in nuclear pore distribution	–	–
Del29: control peptide wherein FUD residue 29 is deleted to abrogate Fn binding (KDQSPLAGESGETEYITEVYGNQQNPVDDKKLPNETGFSGNMVETEDT)	–	–	–	–	–	well-organized stress fibers	did not negatively impact
